Experiment in all cases: steady-state kinetics
What all share (type): biochemical

One experiment has as its target T1, LpGSTU2 (Lolium perenne, UniProt A0A165FYT0).
T1 construct: gene GST; full-length cDNA from leaf mRNA in pEXP5-CT/TOPO, E. coli BL21(DE3), GSH-Sepharose; reverse primer carries stop codon (no C-terminal tag); primer-encoded N-terminus MASEKSS
T1 sequence (A0A165FYT0 1-226): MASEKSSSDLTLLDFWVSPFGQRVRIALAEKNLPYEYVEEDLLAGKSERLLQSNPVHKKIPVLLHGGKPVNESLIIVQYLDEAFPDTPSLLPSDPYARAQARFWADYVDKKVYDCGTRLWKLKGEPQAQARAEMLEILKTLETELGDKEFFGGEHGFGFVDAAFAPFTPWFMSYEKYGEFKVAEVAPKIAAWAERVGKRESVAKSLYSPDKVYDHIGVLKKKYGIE
To be noted: co-substrate GSH; read-out: Km (mM) (CDNB). The text has this:
steady-state kinetics on LpGSTU2

Experiment [1] concerns the target T2, LpGSTU25 (Lolium perenne, UniProt A0A165FYR3).
T2 construct: gene GST; full-length cDNA from leaf mRNA in pEXP5-CT/TOPO, E. coli BL21(DE3), GSH-Sepharose; reverse primer carries stop codon (no C-terminal tag); primer-encoded N-terminus MASEKSS
T2 sequence (A0A165FYR3 1-226): T1 sequence (A0A165FYT0 1-226) with N32S, E48D, V56A, S93A, T117S, L122F, R131K, H215F, K221Q
To be noted: co-substrate GSH; read-out: Km (mM) (CDNB). The text has this:
(§1) steady-state kinetics on LpGSTU25

For experiment [2], the target named is T3, LpGSTU25 (Lolium perenne, UniProt A0A165FYR3, F215H).
T3 construct: gene GST; full-length cDNA from leaf mRNA in pEXP5-CT/TOPO, E. coli BL21(DE3), GSH-Sepharose; reverse primer carries stop codon (no C-terminal tag); primer-encoded N-terminus MASEKSS
T3 sequence (A0A165FYR3 1-226 F215H): T1 sequence (A0A165FYT0 1-226) with N32S, E48D, V56A, S93A, T117S, L122F, R131K, K221Q
The conditions noted are these: co-substrate GSH; read-out: Km (mM) (CDNB).
Source text: as §1

For experiment [3], the target named is T4, LpGSTU25 (Lolium perenne, UniProt A0A165FYR3, F215K).
T4 construct: gene GST; full-length cDNA from leaf mRNA in pEXP5-CT/TOPO, E. coli BL21(DE3), GSH-Sepharose; reverse primer carries stop codon (no C-terminal tag); primer-encoded N-terminus MASEKSS
T4 sequence (A0A165FYR3 1-226 F215K): T1 sequence (A0A165FYT0 1-226) with N32S, E48D, V56A, S93A, T117S, L122F, R131K, H215K, K221Q
The conditions noted are these: co-substrate GSH; read-out: Km (mM) (CDNB).
Source text: as §1

Experiment [4] concerns the target T5, LpGSTU25 (Lolium perenne, UniProt A0A165FYR3, F215L).
T5 construct: gene GST; full-length cDNA from leaf mRNA in pEXP5-CT/TOPO, E. coli BL21(DE3), GSH-Sepharose; reverse primer carries stop codon (no C-terminal tag); primer-encoded N-terminus MASEKSS
T5 sequence (A0A165FYR3 1-226 F215L): T1 sequence (A0A165FYT0 1-226) with N32S, E48D, V56A, S93A, T117S, L122F, R131K, H215L, K221Q
To be noted: co-substrate GSH; read-out: Km (mM) (CDNB).
Source text: as §1

For experiment [5], the target named is T6, LpGSTU25 (Lolium perenne, UniProt A0A165FYR3, F215R).
T6 construct: gene GST; full-length cDNA from leaf mRNA in pEXP5-CT/TOPO, E. coli BL21(DE3), GSH-Sepharose; reverse primer carries stop codon (no C-terminal tag); primer-encoded N-terminus MASEKSS
T6 sequence (A0A165FYR3 1-226 F215R): T1 sequence (A0A165FYT0 1-226) with N32S, E48D, V56A, S93A, T117S, L122F, R131K, H215R, K221Q
The conditions noted are these: co-substrate GSH; read-out: Km (mM) (CDNB).
Source text: as §1

Experiment [6] concerns the target T7, LpGSTU25 (Lolium perenne, UniProt A0A165FYR3, F215S).
T7 construct: gene GST; full-length cDNA from leaf mRNA in pEXP5-CT/TOPO, E. coli BL21(DE3), GSH-Sepharose; reverse primer carries stop codon (no C-terminal tag); primer-encoded N-terminus MASEKSS
T7 sequence (A0A165FYR3 1-226 F215S): T1 sequence (A0A165FYT0 1-226) with N32S, E48D, V56A, S93A, T117S, L122F, R131K, H215S, K221Q
The conditions noted are these: co-substrate GSH; read-out: Km (mM) (CDNB).
Source text: as §1

For experiment [7], the target named is T8, LpGSTU25 (Lolium perenne, UniProt A0A165FYR3, F215T).
T8 construct: gene GST; full-length cDNA from leaf mRNA in pEXP5-CT/TOPO, E. coli BL21(DE3), GSH-Sepharose; reverse primer carries stop codon (no C-terminal tag); primer-encoded N-terminus MASEKSS
T8 sequence (A0A165FYR3 1-226 F215T): T1 sequence (A0A165FYT0 1-226) with N32S, E48D, V56A, S93A, T117S, L122F, R131K, H215T, K221Q
The conditions noted are these: co-substrate GSH; read-out: Km (mM) (CDNB).
Source text: as §1

Experiment [8] addresses T9, LpGSTU25 (Lolium perenne, UniProt A0A165FYR3, F215V).
T9 construct: gene GST; full-length cDNA from leaf mRNA in pEXP5-CT/TOPO, E. coli BL21(DE3), GSH-Sepharose; reverse primer carries stop codon (no C-terminal tag); primer-encoded N-terminus MASEKSS
T9 sequence (A0A165FYR3 1-226 F215V): T1 sequence (A0A165FYT0 1-226) with N32S, E48D, V56A, S93A, T117S, L122F, R131K, H215V, K221Q
To be noted: co-substrate GSH; read-out: Km (mM) (CDNB).
Source text: as §1

Experiment [9] addresses T10, LpGSTU25 (Lolium perenne, UniProt A0A165FYR3, F215Y).
T10 construct: gene GST; full-length cDNA from leaf mRNA in pEXP5-CT/TOPO, E. coli BL21(DE3), GSH-Sepharose; reverse primer carries stop codon (no C-terminal tag); primer-encoded N-terminus MASEKSS
T10 sequence (A0A165FYR3 1-226 F215Y): T1 sequence (A0A165FYT0 1-226) with N32S, E48D, V56A, S93A, T117S, L122F, R131K, H215Y, K221Q
To be noted: co-substrate GSH; read-out: Km (mM) (CDNB).
Source text: as §1

For a further experiment, the target named is T11, LpGSTU5 (Lolium perenne, UniProt A0A165FYU2).
T11 construct: gene GST; full-length cDNA from leaf mRNA in pEXP5-CT/TOPO, E. coli BL21(DE3), GSH-Sepharose; reverse primer carries stop codon (no C-terminal tag); primer-encoded N-terminus MASEKSS
T11 sequence (A0A165FYU2 1-226): T1 sequence (A0A165FYT0 1-226) with N32S, E48D, S93A, T117S
The conditions noted are these: co-substrate GSH; sigmoid, positive cooperativity between the two H-sites; read-out: Km (mM) (CDNB). The text has this: steady-state kinetics on LpGSTU5

Changes are numbered by the printed parent chain.

Broadly, the Km is the concentration of substrate that gives half-maximal velocity.

`O=[N+]([O-])c1ccc(Cl)c([N+](=O)[O-])c1` [CDNB]: the Km turned out to be 0.47 ± 0.03 mM at LpGSTU2; 0.28 ± 0.03 mM on LpGSTU25 [1]; 0.68 ± 0.08 mM at LpGSTU25 [2]; 0.77 ± 0.07 mM at LpGSTU25 [3]; 0.25 ± 0.02 mM on LpGSTU25 [4]; 0.92 ± 0.32 mM at LpGSTU25 [5]. The Km at LpGSTU25 [6] was 0.33 ± 0.03 mM; on LpGSTU25 [7], 0.31 ± 0.03 mM; at LpGSTU25 [8], 0.29 ± 0.02 mM; at LpGSTU25 [9], 0.91 ± 0.12 mM; at LpGSTU5 it was 0.1 ± 0.04 mM.

Source of the values: article PMC11593036, “Comparative Characterization of Three Homologous Glutathione Transferases from the Weed Lolium perenne” (Foods, 2024).
